Assay results as given in ChEMBL document CHEMBL5465560, “Selectivity Literature for EUbOPEN Chemogenomic Library” (2024).

Tests used:
[1] = molecular target: Tyrosine-protein kinase SYK (Homo sapiens, UniProt P43405); experiment: Selectivity interaction (KinomeScan (DiscoverX)) EUB0001049a SYK; conditions: at 1 µM
[2] = molecular target: Tyrosine-protein kinase Yes (Homo sapiens) (UniProt P07947); experiment: Selectivity interaction (KinomeScan (DiscoverX)) EUB0000666a YES1; conditions: at 10 µM
Sequence of Tyrosine-protein kinase Yes (Homo sapiens) (P07947 2-543 limits assumed): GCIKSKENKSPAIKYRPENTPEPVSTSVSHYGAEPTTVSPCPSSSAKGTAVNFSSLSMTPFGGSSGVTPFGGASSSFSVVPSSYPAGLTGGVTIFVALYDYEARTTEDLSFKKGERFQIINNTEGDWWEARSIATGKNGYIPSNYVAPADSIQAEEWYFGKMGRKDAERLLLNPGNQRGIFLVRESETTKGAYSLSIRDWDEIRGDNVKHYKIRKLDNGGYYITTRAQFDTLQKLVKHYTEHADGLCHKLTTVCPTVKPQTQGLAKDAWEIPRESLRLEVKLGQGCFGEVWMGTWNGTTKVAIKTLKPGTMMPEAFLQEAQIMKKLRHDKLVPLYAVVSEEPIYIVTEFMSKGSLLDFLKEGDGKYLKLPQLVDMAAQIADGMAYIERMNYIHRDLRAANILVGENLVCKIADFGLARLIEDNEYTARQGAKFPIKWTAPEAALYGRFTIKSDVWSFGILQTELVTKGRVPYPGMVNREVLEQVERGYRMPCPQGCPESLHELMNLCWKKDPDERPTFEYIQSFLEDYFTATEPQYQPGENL

[3] = molecular target: T1, cAMP-dependent protein kinase catalytic subunit PRKX (Homo sapiens) (UniProt P51817); experiment: Selectivity interaction (KinomeScan (DiscoverX)) EUB0000666a PRKX; conditions: at 10 µM
T1 sequence (whole entry): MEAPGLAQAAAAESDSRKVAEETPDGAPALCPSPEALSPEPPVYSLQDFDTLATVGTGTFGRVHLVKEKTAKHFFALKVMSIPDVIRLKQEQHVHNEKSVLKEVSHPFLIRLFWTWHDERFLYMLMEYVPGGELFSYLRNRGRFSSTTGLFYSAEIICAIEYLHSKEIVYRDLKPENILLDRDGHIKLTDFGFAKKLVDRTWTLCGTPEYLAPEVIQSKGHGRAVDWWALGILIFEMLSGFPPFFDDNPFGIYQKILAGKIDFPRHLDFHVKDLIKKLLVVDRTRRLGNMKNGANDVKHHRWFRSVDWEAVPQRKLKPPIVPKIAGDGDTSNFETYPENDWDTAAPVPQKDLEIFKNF

[4] = molecular target: Protein polybromo-1 (Homo sapiens) (UniProt Q86U86); experiment: Selectivity interaction (Human bromodomain panel (DSF assay)) EUB0000233b PBRM1
Sequence of Protein polybromo-1 (Homo sapiens) (Q86U86 whole entry): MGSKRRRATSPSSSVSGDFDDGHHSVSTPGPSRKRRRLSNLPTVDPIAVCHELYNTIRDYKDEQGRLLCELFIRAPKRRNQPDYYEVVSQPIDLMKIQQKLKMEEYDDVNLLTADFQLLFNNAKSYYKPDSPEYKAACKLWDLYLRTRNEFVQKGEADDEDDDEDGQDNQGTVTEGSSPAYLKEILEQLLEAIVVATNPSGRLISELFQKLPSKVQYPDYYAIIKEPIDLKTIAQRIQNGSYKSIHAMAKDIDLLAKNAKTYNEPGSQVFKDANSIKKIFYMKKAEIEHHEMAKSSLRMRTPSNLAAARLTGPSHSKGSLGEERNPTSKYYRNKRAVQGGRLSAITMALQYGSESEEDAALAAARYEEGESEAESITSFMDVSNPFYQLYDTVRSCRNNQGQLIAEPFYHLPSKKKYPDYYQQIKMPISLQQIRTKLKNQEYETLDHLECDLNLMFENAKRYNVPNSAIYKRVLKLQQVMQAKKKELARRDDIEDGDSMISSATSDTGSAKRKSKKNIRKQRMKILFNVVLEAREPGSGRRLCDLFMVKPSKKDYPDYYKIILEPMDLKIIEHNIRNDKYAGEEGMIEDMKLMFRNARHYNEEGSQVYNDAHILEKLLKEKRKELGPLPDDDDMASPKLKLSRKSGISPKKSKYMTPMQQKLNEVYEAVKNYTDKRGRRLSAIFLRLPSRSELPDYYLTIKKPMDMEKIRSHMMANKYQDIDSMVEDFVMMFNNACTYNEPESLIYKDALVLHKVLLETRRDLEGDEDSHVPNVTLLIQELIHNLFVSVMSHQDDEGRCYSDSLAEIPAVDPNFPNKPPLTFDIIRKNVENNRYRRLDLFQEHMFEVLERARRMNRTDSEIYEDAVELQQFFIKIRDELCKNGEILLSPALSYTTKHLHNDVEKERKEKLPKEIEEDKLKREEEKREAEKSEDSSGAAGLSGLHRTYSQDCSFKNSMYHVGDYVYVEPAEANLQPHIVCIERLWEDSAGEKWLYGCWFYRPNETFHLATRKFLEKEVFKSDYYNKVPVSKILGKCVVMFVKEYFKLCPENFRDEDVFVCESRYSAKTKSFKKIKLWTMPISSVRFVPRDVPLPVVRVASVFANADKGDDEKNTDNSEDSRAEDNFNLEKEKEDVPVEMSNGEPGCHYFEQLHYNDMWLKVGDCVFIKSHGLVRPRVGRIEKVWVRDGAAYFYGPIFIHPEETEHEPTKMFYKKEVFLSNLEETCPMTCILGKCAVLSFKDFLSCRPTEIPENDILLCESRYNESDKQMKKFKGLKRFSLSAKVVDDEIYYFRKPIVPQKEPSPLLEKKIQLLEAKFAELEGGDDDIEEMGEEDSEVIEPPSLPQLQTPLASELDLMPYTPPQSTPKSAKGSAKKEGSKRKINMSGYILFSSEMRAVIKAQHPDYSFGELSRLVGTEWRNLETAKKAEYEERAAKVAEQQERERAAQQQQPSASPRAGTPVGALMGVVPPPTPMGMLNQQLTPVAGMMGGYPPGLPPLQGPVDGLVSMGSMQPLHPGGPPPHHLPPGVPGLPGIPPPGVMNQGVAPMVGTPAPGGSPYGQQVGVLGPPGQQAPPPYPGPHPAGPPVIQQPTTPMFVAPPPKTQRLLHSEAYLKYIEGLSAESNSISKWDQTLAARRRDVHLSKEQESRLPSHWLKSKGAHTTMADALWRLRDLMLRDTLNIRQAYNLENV

[5] = molecular target: Mitogen-activated protein kinase kinase kinase 14 (Homo sapiens) (UniProt Q99558); experiment: Selectivity interaction (Kinase panel (Invitrogen)) EUB0000639a MAP3K14; conditions: at 200 nM
Sequence of Mitogen-activated protein kinase kinase kinase 14 (Homo sapiens) (Q99558 whole entry, looked up): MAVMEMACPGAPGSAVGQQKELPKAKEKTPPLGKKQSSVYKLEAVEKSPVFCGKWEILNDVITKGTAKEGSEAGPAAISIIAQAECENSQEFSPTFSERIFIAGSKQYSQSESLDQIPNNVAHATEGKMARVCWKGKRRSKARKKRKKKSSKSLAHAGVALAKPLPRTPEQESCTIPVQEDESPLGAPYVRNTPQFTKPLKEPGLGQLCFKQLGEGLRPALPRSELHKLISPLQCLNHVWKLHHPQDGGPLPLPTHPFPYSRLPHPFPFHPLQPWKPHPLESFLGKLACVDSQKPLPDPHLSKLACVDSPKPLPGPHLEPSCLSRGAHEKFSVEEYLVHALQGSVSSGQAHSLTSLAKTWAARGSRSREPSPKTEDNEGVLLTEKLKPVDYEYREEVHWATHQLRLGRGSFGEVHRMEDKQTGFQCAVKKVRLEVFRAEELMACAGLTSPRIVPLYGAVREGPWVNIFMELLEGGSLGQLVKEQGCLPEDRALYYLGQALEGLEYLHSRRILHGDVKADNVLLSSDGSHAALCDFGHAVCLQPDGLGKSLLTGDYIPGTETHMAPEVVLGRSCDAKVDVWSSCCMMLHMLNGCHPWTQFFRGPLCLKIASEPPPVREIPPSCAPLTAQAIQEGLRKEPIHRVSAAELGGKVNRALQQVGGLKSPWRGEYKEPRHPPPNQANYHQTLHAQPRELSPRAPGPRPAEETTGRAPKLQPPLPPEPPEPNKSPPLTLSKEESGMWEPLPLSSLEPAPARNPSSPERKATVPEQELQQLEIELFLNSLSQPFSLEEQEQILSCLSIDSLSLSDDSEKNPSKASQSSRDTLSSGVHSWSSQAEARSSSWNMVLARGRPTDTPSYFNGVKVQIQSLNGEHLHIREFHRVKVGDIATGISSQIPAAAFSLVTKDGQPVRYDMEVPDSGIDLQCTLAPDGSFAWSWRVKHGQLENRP

[6] = molecular target: T2, Tyrosine-protein kinase ITK/TSK (Homo sapiens) (UniProt Q08881); experiment: Selectivity interaction (KinomeScan (DiscoverX)) EUB0000092b ITK; conditions: at 10 µM
T2 sequence (whole entry): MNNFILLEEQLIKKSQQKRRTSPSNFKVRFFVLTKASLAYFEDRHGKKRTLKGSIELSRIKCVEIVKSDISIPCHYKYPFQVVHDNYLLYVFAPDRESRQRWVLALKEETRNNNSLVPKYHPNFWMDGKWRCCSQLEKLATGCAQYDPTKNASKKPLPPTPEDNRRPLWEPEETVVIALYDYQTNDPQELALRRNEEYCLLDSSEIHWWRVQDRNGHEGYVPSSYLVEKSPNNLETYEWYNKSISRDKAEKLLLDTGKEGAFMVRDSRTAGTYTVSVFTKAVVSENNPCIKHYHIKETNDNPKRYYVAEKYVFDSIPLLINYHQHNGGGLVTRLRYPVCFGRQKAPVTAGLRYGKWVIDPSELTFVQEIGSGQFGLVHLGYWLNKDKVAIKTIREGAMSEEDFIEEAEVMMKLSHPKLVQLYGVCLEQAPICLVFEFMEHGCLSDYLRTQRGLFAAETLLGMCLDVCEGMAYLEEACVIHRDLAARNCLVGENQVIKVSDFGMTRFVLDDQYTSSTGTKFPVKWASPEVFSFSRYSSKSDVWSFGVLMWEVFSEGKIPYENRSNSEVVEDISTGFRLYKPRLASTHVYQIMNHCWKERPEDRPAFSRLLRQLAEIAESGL

[7] = molecular target: Phosphorylase b kinase gamma catalytic chain, skeletal muscle/heart isoform (Homo sapiens) (UniProt Q16816); experiment: Selectivity interaction (KinomeScan (DiscoverX)) EUB0000092b PHKG1; conditions: at 10 µM
Sequence of Phosphorylase b kinase gamma catalytic chain, skeletal muscle/heart isoform (Homo sapiens) (Q16816 whole entry, looked up, canonical isoform): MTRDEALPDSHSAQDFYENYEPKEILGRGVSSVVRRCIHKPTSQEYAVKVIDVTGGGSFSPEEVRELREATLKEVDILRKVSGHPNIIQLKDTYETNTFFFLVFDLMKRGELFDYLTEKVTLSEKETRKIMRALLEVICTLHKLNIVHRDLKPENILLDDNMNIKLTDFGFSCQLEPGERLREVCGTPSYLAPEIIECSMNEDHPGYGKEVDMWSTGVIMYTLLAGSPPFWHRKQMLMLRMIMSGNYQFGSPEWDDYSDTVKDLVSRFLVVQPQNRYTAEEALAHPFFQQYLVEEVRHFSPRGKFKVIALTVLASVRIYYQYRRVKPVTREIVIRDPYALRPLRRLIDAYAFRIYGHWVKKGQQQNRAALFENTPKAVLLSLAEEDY

[8] = molecular target: Serine/threonine-protein kinase N1 (Homo sapiens, UniProt Q16512); experiment: Selectivity interaction (Ambit KINOMEscan and KiNATiv profiling in Jurkat cells) EUB0000090b PKN1; assay type: cell-based; conditions: at 1 µM
[9] = molecular target: T3, Serine/threonine-protein kinase DCLK1 (Homo sapiens) (UniProt O15075); experiment: Selectivity interaction (KinomeScan (DiscoverX)) EUB0001619a DCLK1; conditions: at 1 µM
T3 sequence (whole entry): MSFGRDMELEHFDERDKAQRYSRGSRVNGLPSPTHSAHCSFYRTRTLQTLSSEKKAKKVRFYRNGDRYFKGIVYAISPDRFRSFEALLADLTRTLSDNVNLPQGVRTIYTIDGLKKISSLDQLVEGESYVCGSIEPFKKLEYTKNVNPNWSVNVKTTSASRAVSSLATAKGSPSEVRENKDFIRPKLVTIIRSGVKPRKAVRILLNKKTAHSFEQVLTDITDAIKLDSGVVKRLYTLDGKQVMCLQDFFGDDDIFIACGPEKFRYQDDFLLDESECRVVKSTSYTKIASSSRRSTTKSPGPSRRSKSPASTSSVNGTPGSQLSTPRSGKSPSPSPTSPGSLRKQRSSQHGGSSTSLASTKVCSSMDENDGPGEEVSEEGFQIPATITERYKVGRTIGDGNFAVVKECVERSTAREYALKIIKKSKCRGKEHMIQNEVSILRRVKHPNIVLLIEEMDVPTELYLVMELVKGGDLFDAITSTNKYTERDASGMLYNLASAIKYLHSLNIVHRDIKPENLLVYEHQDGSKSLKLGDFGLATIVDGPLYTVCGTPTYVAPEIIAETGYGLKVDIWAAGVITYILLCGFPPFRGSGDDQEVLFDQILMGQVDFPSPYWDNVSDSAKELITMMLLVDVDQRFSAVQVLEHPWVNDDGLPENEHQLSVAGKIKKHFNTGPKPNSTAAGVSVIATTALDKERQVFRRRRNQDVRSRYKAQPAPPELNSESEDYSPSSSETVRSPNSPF

[10] = molecular target: T4, Dual specificity mitogen-activated protein kinase kinase 6 (Homo sapiens) (UniProt P52564); experiment: Selectivity interaction (Upstate Kinase Profiler service (Millipore)) EUB0000056c MAP2K6; conditions: at 1 µM
T4 sequence (whole entry): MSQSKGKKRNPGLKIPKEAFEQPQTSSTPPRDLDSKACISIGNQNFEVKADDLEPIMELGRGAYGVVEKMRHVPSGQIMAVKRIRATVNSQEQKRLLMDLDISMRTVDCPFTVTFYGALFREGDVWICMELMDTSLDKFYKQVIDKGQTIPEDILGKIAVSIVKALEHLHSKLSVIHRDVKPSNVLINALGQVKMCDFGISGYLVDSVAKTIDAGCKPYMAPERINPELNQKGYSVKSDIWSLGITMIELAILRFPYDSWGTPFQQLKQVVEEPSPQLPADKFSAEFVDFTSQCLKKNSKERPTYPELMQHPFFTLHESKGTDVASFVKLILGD

[11] = molecular target: Ribosomal protein S6 kinase alpha-6 (Homo sapiens, UniProt Q9UK32); experiment: Selectivity interaction (SelectScreen profiling (Invitrogen)) EUB0000607a RPS6KA6; conditions: at 2 µM
[12] = molecular target: Tyrosine-protein kinase ABL1 (Homo sapiens, UniProt P00519); experiment: Selectivity interaction (KinomeScan (DiscoverX)) EUB0000607a ABL1; conditions: at 10 µM
[13] = molecular target: Histone-lysine N-methyltransferase, H3 lysine-79 specific (Homo sapiens, UniProt Q8TEK3); experiment: Selectivity interaction (Methyltransferase screen (radiometric assays, panel of 8 PRMTs, 21 protein lysine methyltransferases, 3 DNA methyltransferases, and one RNA methyltransferase)) EUB0000271b DOT1L
Sequence of Histone-lysine N-methyltransferase, H3 lysine-79 specific (Q8TEK3 whole entry, looked up): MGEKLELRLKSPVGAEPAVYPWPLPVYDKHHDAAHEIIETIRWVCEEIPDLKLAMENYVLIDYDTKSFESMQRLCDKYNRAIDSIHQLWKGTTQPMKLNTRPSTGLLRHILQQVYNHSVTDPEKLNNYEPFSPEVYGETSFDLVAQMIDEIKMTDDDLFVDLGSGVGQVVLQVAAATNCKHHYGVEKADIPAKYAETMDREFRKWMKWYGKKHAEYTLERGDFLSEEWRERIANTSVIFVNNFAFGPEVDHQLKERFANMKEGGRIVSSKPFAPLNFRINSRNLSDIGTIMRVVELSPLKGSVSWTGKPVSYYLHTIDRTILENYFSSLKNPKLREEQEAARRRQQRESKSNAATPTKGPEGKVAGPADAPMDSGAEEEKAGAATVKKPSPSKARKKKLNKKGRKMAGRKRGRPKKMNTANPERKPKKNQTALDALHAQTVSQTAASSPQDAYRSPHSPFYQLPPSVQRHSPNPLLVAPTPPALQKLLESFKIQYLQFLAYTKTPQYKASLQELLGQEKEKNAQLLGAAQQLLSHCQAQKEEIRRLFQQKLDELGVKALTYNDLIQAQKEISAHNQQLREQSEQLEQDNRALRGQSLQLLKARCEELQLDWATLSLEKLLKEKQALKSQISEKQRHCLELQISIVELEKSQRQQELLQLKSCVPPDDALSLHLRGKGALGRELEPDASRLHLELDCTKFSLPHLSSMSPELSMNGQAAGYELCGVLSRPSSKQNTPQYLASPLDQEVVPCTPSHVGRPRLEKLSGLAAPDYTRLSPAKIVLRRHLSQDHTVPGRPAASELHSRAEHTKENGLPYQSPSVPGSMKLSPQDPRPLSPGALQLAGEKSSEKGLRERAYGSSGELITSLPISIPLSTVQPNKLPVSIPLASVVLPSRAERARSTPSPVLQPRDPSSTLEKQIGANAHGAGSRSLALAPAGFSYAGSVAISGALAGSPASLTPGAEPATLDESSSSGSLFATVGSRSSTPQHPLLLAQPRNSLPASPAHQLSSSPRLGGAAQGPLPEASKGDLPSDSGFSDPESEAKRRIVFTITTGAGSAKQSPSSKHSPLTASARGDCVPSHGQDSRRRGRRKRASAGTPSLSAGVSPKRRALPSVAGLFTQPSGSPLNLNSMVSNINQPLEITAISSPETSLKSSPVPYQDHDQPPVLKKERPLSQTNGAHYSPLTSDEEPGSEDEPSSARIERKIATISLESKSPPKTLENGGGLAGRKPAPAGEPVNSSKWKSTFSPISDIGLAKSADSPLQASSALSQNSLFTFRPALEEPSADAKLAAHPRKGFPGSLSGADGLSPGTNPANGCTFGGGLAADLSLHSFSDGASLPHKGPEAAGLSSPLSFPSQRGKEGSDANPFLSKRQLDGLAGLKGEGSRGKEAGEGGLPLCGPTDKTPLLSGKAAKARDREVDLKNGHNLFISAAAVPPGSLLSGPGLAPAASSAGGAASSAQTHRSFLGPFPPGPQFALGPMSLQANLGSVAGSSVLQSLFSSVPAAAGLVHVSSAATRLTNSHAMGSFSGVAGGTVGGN

In the case of `COc1cc(Nc2nc(C)cc(-c3cnn4nc(OC)ccc34)n2)cc(C(F)(F)F)c1`, the % of control [1] is reported as 100%.

`O=C(NOC[C@H](O)CO)c1ccc(F)c(F)c1Nc1ccc(I)cc1F` gave a % of control [2] of 73% and a % of control [3] of 100%.

`CN(C)CCCOc1ccc(-c2cc(NCCCn3cccn3)nc(S(C)(=O)=O)n2)cc1` was tested, and the dTM [4] was less than 2 K.

In the case of `CC[C@@H]1[C@H](F)C(=O)N[C@@H]1COc1nccc2cc(C(N)=O)c(OC)cc12` [ZIMLOVISERTIB], the % of inhibition [5] is reported as -0.0527%.

Compound `CCC(=O)N1CCN(c2ccc(-n3c(=O)ccc4cnc5ccc(-c6cnc7ccccc7c6)cc5c43)cc2C(F)(F)F)CC1` has a % of control [6] of 100% and a % of control [7] of 100%.

With `CN(C)C/C=C/C(=O)Nc1ccc(C(=O)N2CCCC(Nc3ncc(Cl)c(-c4c[nH]c5ccccc45)n3)C2)cc1` (centres undefined) the % of control [8] was 94%.

Compound `N#Cc1cccc(-c2c[nH]c3ncnc(N4CCOCC4)c23)c1` has a % of control [9] of 100%.

`Cc1ccc(-c2ccc3c(ccc4sc5c(c43)NC[C@@H](C)NC5=O)n2)cn1` gave a % of inhibition [10] of 2%.

`CNC(=O)Nc1ccc(-c2nc(N3CC4CCC(C3)O4)c3cnn(C4CCC5(CC4)OCCO5)c3n2)cc1` showed a % of inhibition [11] of 12% and a % of control [12] of 100%.

`Cc1cc(C)cc([C@@H]2c3cc(C)ccc3NC(=O)CN2C(=O)c2ccc(Br)s2)c1` showed a % of activity ([13]; at 1 µM) of 102% and a % of activity ([13]; at 10 µM) of 92.7%.
